How the values were obtained:
PKC-β = test: In vitro competition with anti-PKC-β antibody, Protocol B, IMR-32 cells; format: binding, human; settings: PKC-β, IMR-32, Table 8
Method: The ability of the peptides PRE 2 and PRE 3 (see Table 3) to interfere with the binding of a PKC-α-specific polyclonal antibody (Santa Cruz Biotechnology, Inc.) to PKC-α was determined using a modified version of the protocol outlined above in which the test peptide was added directly to the cell extract prior to electrophoresis at a concentration of either 5× or 15× the concentration of the protein applied to each well of the gel for the Western blots (20 μg).
Peptides PRE 2 and PRE 3 (see Table 3) were tested for their ability to interfere with the binding of a PKC-β-specific polyclonal antibody (Santa Cruz Biotechnology, Inc.) to PKC-β using the general protocol described in Example 3.

PKC-α [1] = molecular target: T1, PKC-α (Rattus norvegicus, UniProt P05696); test: In vitro competition with anti-PKC-α antibody on blotted cell lysate, Protocol A, C6Cx43 cells; format: binding
T1 construct: Cell lysates from either IMR-32 (human neuroblastoma) cells or C6Cx43 cells; endogenous in cells; host or cells: C6Cx43 (rat glioma transfected with connexin 43)
Method: (§1) The ability of the peptides to interfere with the binding of a PKC-α-specific monoclonal antibody to PKC-α was determined using the following protocol.
(§2) Cell lysates from either IMR-32 (human neuroblastoma) cells or C6Cx43 cells (rat glioma transfected cells overexpressing connexin 43) were obtained using standard protocols and the proteins of the lysate were separated by SDS PAGE electrophoresis and electrotransferred onto a nitrocellulose membrane. […] A primary polyclonal antibody specific for PKC-α (Santa Cruz Biotechnology, Inc., CA) was then added (15 μg/ml) and the membrane incubated for a further 45 minutes. Finally, the primary antibody was detected with a secondary antibody conjugated to alkaline phosphatase using standard procedures. The intensity of the band corresponding to PKC-α was assessed by scanning and densitometry using the Gel-Pro software (Media Cybernetics) to obtain relative band intensities (average of 3 replicas). Control assays were conducted as described above except that blocking buffer without peptide was used.
(§3) The results are expressed as relative band intensity and as a percentage of the intensity of the corresponding band in the control assay (“Relative intensity (%)”). “% inhibition” relates to the percentage of the PKC-α band that is inaccessible to the antibody.

PKC-α [2] = molecular target: T2, PKC-α (Homo sapiens, UniProt P17252); test: In vitro competition with anti-PKC-α antibody on blotted cell lysate, Protocol A, IMR-32 cells; format: binding; design: subcellular localisation of endogenous PKC-α in IMR-32 cells; endogenous in cells; host or cells: IMR-32
Method: as §1, §2, §3

PKC-α [3] = molecular target: T2, PKC-α; test: Antibody competitive binding assay with fluorescent antibody (FIG. 4); settings: PRE at 20× concentration
Method: (§4) FIG. 4 presents data from conventional antibody competitive binding assays using PKC-α versus a representative battery of PKC isoforms (commercially available). PKC isoforms representing the three subgroups of the PKC family were assessed (classical PKCs=PKCalpha; novel PKCs=PKCdelta and epsilon; atypical PKCs=PKCzeta). Controls received the appropriate PKC isoform fluorescent antibody. Treated samples received the PRE sequence from PhGα1 (20× concentration) and the same PKC antibody. Specific affinity to PKC-α in the treated sample by the PRE will therefore decrease the amount of binding by the fluorescent antibody, represented by a decrease in fluorescent intensity in the treated sample.

PKCepsilon = molecular target: T3, PKCepsilon (Homo sapiens, UniProt Q02156); test: as above; settings: PRE at 20× concentration
T3 construct: purchased
T3 sequence (Q02156 1-737): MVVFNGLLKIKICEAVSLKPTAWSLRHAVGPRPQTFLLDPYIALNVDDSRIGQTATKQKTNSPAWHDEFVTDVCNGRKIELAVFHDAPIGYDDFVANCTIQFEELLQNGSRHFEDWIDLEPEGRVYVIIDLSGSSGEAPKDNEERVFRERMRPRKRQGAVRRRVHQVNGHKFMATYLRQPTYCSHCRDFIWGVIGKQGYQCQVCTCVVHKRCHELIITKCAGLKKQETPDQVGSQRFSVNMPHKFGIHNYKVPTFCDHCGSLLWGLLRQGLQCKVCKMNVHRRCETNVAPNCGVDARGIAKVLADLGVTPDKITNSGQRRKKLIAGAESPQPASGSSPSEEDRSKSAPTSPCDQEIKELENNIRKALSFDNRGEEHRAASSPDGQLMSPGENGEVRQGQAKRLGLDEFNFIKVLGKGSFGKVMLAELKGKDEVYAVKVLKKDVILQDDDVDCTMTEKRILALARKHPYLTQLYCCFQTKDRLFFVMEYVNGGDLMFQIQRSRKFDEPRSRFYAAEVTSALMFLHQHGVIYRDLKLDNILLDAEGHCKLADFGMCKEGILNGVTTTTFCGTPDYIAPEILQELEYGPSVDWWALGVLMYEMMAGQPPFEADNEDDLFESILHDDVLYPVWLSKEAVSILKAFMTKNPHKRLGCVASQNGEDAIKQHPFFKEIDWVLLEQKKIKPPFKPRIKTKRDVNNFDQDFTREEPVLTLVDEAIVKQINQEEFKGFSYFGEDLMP
Method: as §4

[4] = 75 μg peptide, IMR-32, Protocol A, Table 4
[5] = 300 μg peptide, IMR-32, Protocol A, Table 4

Substance: Ac-AKGIQEVKGGDAQNLIGISI-NH2 [PRE 3]
- Band Intensity (PKC-β; 100 μg): 0.0
- Inhibition (%) (PKC-β; 100 μg): 100.0%
- Relative Intensity (%) (PKC-β; 100 μg): 0.0%
- Band Intensity (PKC-β; 200 μg): 0.0
- Inhibition (%) (PKC-β; 200 μg): 100.0%
- Relative Intensity (%) (PKC-β; 200 μg): 0.0%
- Band Intensity (PKC-β; 300 μg): 0.0
- Inhibition (%) (PKC-β; 300 μg): 100.0%
- Relative Intensity (%) (PKC-β; 300 μg): 0.0%
- Band Intensity (PKC-α [1]; 75 μg, Table 5): 0.909
- inhibition at 0.075 mg (PKC-α [1]; 75 μg, Table 5): 0%
- remaining activity at 0.075 mg (PKC-α [1]; 75 μg, Table 5, read-out: Relative Intensity (%)): 98%
- Band Intensity (PKC-α [1]; 300 μg, Table 5): 0.888
- inhibition at 0.3 mg (PKC-α [1]; 300 μg, Table 5): 0%
- remaining activity at 0.3 mg (PKC-α [1]; 300 μg, Table 5, read-out: Relative Intensity (%)): 95.8%
- Band Intensity (PKC-α [1]; 600 μg, Table 5): 0.889
- inhibition at 0.6 mg (PKC-α [1]; 600 μg, Table 5): 0%
- remaining activity at 0.6 mg (PKC-α [1]; 600 μg, Table 5, read-out: Relative Intensity (%)): 95.9%
- Band Intensity (PKC-α [1]; 3.75 mg, Table 5): 0.603
- remaining activity at 3.75 mg (PKC-α [1]; 3.75 mg, Table 5, read-out: Relative Intensity (%)): 105%
- Band Intensity (PKC-α [1]; 5.25 mg, Table 5): 0.599
- remaining activity at 5.25 mg (PKC-α [1]; 5.25 mg, Table 5, read-out: Relative Intensity (%)): 105%
- Band Intensity (PKC-α [1]; 7.5 mg, Table 5): 0.589
- inhibition at 7.5 mg (PKC-α [1]; 7.5 mg, Table 5): 0%
- remaining activity at 7.5 mg (PKC-α [1]; 7.5 mg, Table 5, read-out: Relative Intensity (%)): 103%
- Band Intensity (PKC-α [2]; 75 μg, IMR-32 Cells, Table 5): 0.889
- inhibition at 0.075 mg (PKC-α [2]; 75 μg, IMR-32 Cells, Table 5): 0.7%
- remaining activity at 0.075 mg (PKC-α [2]; 75 μg, IMR-32 Cells, Table 5, read-out: Relative Intensity (%)): 99.3%
- Band Intensity (PKC-α [2]; 300 μg, IMR-32 Cells, Table 5): 0.922
- inhibition at 0.3 mg (PKC-α [2]; 300 μg, IMR-32 Cells, Table 5): 0%
- remaining activity at 0.3 mg (PKC-α [2]; 300 μg, IMR-32 Cells, Table 5, read-out: Relative Intensity (%)): 103%
- Band Intensity (PKC-α [2]; 600 μg, IMR-32 Cells, Table 5): 0.888
- inhibition at 0.6 mg (PKC-α [2]; 600 μg, IMR-32 Cells, Table 5): 0%
- remaining activity at 0.6 mg (PKC-α [2]; 600 μg, IMR-32 Cells, Table 5, read-out: Relative Intensity (%)): 99.2%
- Band Intensity (PKC-α [2]; 3.75 mg, IMR-32 Cells, Table 5): 0.600
- remaining activity at 3.75 mg (PKC-α [2]; 3.75 mg, IMR-32 Cells, Table 5, read-out: Relative Intensity (%)): 102%
- Band Intensity (PKC-α [2]; 5.25 mg, IMR-32 Cells, Table 5): 0.603
- remaining activity at 5.25 mg (PKC-α [2]; 5.25 mg, IMR-32 Cells, Table 5, read-out: Relative Intensity (%)): 102%
- Band Intensity (PKC-α [2]; 7.5 mg, IMR-32 Cells, Table 5): 0.609
- inhibition at 7.5 mg (PKC-α [2]; 7.5 mg, IMR-32 Cells, Table 5): 0%
- remaining activity at 7.5 mg (PKC-α [2]; 7.5 mg, IMR-32 Cells, Table 5, read-out: Relative Intensity (%)): 103%
- effect on antibody binding to PKC-α (PKC-α [2]; Protocol A): did not show an effect on antibody binding

Substance: Ac-KDAQNLIGISI-NH2 [PRE 4, Ac-KDAQNLIGISI-NH2]
- effect on fluorescent antibody binding to PKC-α (PKC-α [3]): decrease in antibody binding
- effect on fluorescent antibody binding to PKCepsilon (PKCepsilon): not with PKCdelta, epsilon or zeta

Substance: RRKKGGKDFVVKR [PRE 1]
- Band Intensity (PKC-α [2]; [4]): 1.040
- Inhibition (%) (PKC-α [2]; [4]): 50.2%
- Relative Intensity (%) (PKC-α [2]; [4]): 49.8%
- Band Intensity (PKC-α [2]; [5]): 0.771
- Inhibition (%) (PKC-α [2]; [5]): 63.1%
- Relative Intensity (%) (PKC-α [2]; [5]): 36.9%
- effect on antibody binding to PKC-α (PKC-α [2]; Protocol A): mask the antigenic site of PKC-α

— patent US20100041597A1, “PEPTIDES TARGETED TO PROTEIN KINASE C ISOFORMS AND USES THEREOF” (priority 2005, published 2010)
